Reference: US20250129104A1, “7H-PYRROLO[2,3-D]PYRIMIDINES AND PREPARATION AND USES THEREOF” (BioSplice Therapeutics, Inc., priority 2021, published 2025)

molecular target: recombinant DYRK1A kinase (Homo sapiens (Human), UniProt Q13627); test: DYRK1A kinase assay (Ser/Thr 18 peptide Z-lyte FRET assay); assay type: biochemical; conditions: DYRK1A kinase activity; 15 μM ATP, 1 h room temperature; method text calls the value IC50
Procedure: Representative compounds were screened using the assay procedure for DYRK1A kinase activity as described below.
Each compound was dissolved in DMSO as a 10 mM stock and used to prepare compound source plates. Serial dilution (1:3, 11-point dose-response curves from 10 μM to 0.00016 μM) and compound transfer was performed using the ECHO 550 (Labcyte, Sunnyvale, CA) into 1536-well black-walled round bottom plates (Corning).
The DYRK1A kinase assay was run using the Ser/Thr 18 peptide Z-lyte assay kit according to manufacturer's instructions (Life Technologies—a Division of Thermo-Fisher). This is a non-radioactive assay using fluorescence resonance energy transfer (FRET) between coumarin and fluorescein to detect kinase activity which is represented as a ratio of coumarin emission/fluorescein emission.
Briefly, recombinant DYRK1A kinase, ATP and Ser/Thr peptide 18 were prepared in 1× Kinase buffer to final concentrations of 0.25 μg/mL, 15 μM, and 4 μM respectively. The mixture was allowed to incubate with the representative compounds for one hour at room temperature. All reactions were performed in duplicate. Unphosphorylated (“0% Control”) and phosphorylated (“100% control”) forms of Ser/Thr 18 served as control reactions. Additionally, an 11-point dose-response curve of Staurosporine (1 uM top) was run to serve as a positive compound control.
After incubation, Development Reagent A was diluted in Development Buffer then added to the reaction and allowed to further incubate for one hour at room temperature. The plate was read at Ex 400 Em […] to detect the coumarin signal and Ex 400 Em 520 to measure the signal (EnVision Multilabel Plate Reader, PerkinElmer).
The Emission ratio (Em) was calculated as a ratio of the coumarin (C) emission signal (at 445 nm)/Fluorescein (F) emission signal (at 520 nm). The percent phosphorylation was then calculated using the following formula: [1−((Em ratio×F100%)−C100%)/((C0%−C100%)+(Em ratio×(F100%−F0%)))]. Dose-response curves were generated, and inhibitory concentration (IC50) values were calculated using non-linear regression curve fit in the Dotmatics' Studies Software (Bishops Stortford, UK).

| SMILES | EC50 |
| --- | --- |
| CC(C)Cc1ncc2c(-c3ccc4nnn(C)c4c3)c[nH]c2n1 [Compound 810, 6-(2-Isobutyl-7H-pyrrolo[2,3-d]pyrimidin-5-yl)-1-methyl-1H-benzo[d][1,2,3]triazole] | 66 nM |
| Cn1nnc2ccc(-c3c[nH]c4nc(CCC(F)(F)F)ncc34)cc21 [Compound 811, 1-Methyl-6-(2-(3,3,3-trifluoropropyl)-7H-pyrrolo[2,3-d]pyrimidin-5-yl)-1H-benzo[d][1,2,3]triazole] | 33.3 nM |
| Cn1nnc2ccc(-c3c[nH]c4nc(NCC(C)(C)F)ncc34)cc21 [Compound 822, N-(2-Fluoro-2-methylpropyl)-5-(1-methyl-1H-benzo[d][1,2,3]triazol-6-yl)-7H-pyrrolo[2,3-d]pyrimidin-2-amine] | 2.9 nM |
| Cn1nnc2ccc(-c3c[nH]c4nc(NCC(C)(F)F)ncc34)cc21 [Compound 823, N-(2,2-Difluoropropyl)-5-(1-methyl-1H-benzo[d][1,2,3]triazol-6-yl)-7H-pyrrolo[2,3-d]pyrimidin-2-amine] | 6 nM |
| Cn1nnc2ccc(-c3c[nH]c4nc(NCC(F)(F)F)ncc34)cc21 [Compound 824, 5-(1-Methyl-1H-benzo[d][1,2,3]triazol-6-yl)-N-(2,2,2-trifluoroethyl)-7H-pyrrolo[2,3-d]pyrimidin-2-amine] | 3.4 nM |
| C[C@@H](Nc1ncc2c(-c3ccc4nnn(C)c4c3)c[nH]c2n1)C(F)(F)F [Compound 825, (R)-5-(1-Methyl-1H-benzo[d][1,2,3]triazol-6-yl)-N-(1,1,1-trifluoropropan-2-yl)-7H-pyrrolo[2,3-d]pyrimidin-2-amine] | 4.8 nM |
| C[C@H](Nc1ncc2c(-c3ccc4nnn(C)c4c3)c[nH]c2n1)C(F)(F)F [Compound 826, (S)-5-(1-Methyl-1H-benzo[d][1,2,3]triazol-6-yl)-N-(1,1,1-trifluoropropan-2-yl)-7H-pyrrolo[2,3-d]pyrimidin-2-amine] | 43 nM |
| CN1CCC(Nc2ncc3c(-c4ccc5nnn(C)c5c4)c[nH]c3n2)CC1 [Compound 841, 5-(1-Methyl-1H-benzo[d][1,2,3]triazol-6-yl)-N-(1-methylpiperidin-4-yl)-7H-pyrrolo[2,3-d]pyrimidin-2-amine] | 13.6 nM |
| Cn1nnc2ccc(-c3c[nH]c4nc(NC5CCOCC5)ncc34)cc21 [Compound 843, 5-(1-Methyl-1H-benzo[d][1,2,3]triazol-6-yl)-N-(tetrahydro-2H-pyran-4-yl)-7H-pyrrolo[2,3-d]pyrimidin-2-amine] | 23.2 nM |
| CCn1nnc2ccc(-c3c[nH]c4nc(NCC(C)(C)F)ncc34)cc21 [Compound 865, 5-(1-Ethyl-1H-benzo[d][1,2,3]triazol-6-yl)-N-(2-fluoro-2-methylpropyl)-7H-pyrrolo[2,3-d]pyrimidin-2-amine] | 7.3 nM |
| Cc1nnc2ccc(-c3c[nH]c4nc(NCC(C)(C)F)ncc34)cn12 [Compound 895, N-(2-Fluoro-2-methylpropyl)-5-(3-methyl-[1,2,4]triazolo[4,3-a]pyridin-6-yl)-7H-pyrrolo[2,3-d]pyrimidin-2-amine] | 83.2 nM |
| CC(C)Cc1ncc2c(-c3ccc4nccn4n3)c[nH]c2n1 [Compound 897, 5-(Imidazo[1,2-b]pyridazin-6-yl)-2-isobutyl-7H-pyrrolo[2,3-d]pyrimidine] | 66.8 nM |
| CC(C)(C)CNc1ncc2c(-c3ccc4nccn4n3)c[nH]c2n1 [Compound 907, 5-(Imidazo[1,2-b]pyridazin-6-yl)-N-neopentyl-7H-pyrrolo[2,3-d]pyrimidin-2-amine] | 8.8 nM |
| FC(F)(F)CNc1ncc2c(-c3ccc4nccn4n3)c[nH]c2n1 [Compound 911, 5-(Imidazo[1,2-b]pyridazin-6-yl)-N-(2,2,2-trifluoroethyl)-7H-pyrrolo[2,3-d]pyrimidin-2-amine] | 9.6 nM |

Now from value to molecule:

| EC50 | SMILES |
| --- | --- |
| 3.4 nM | C[C@@H](Nc1ncc2c(-c3ccc4nccn4n3)c[nH]c2n1)C1CC1 [Compound 918, (R)—N-(1-Cyclopropylethyl)-5-(imidazo[1,2-b]pyridazin-6-yl)-7H-pyrrolo [2,3-d]pyrimidin-2-amine] |
| 4 nM | c1cn2nc(-c3c[nH]c4nc(NC5CCOCC5)ncc34)ccc2n1 [Compound 930, 5-(Imidazo[1,2-b]pyridazin-6-yl)-N-(tetrahydro-2H-pyran-4-yl)-7H-pyrrolo[2,3-d]pyrimidin-2-amine] |
| 2.7 nM | CC(C)(F)CNc1ncc2c(-c3ccc4ncc(Cl)n4n3)c[nH]c2n1 [Compound 952, 5-(3-chloroimidazo[1,2-b]pyridazin-6-yl)-N-(2-fluoro-2-methylpropyl)-7H-pyrrolo[2,3-d]pyrimidin-2-amine] |
| 25.7 nM | Cc1cn2nc(-c3c[nH]c4nc(NC(C)C)ncc34)ccc2n1 [Compound 991, N-Isopropyl-5-(2-methylimidazo[1,2-b]pyridazin-6-yl)-7H-pyrrolo[2,3-d]pyrimidin-2-amine] |
| 9.3 nM | Cc1cn2nc(-c3c[nH]c4nc(NCC(C)(C)F)ncc34)ccc2n1 [Compound 995, N-(2-Fluoro-2-methylpropyl)-5-(2-methylimidazo[1,2-b]pyridazin-6-yl)-7H-pyrrolo[2,3-d]pyrimidin-2-amine] |
| 9.8 nM | Cc1cnc2ccc(-c3c[nH]c4nc(NC5CCN(C)CC5)ncc34)nn12 [Compound 1057, 5-(3-Methylimidazo[1,2-b]pyridazin-6-yl)-N-(1-methylpiperidin-4-yl)-7H-pyrrolo[2,3-d]pyrimidin-2-amine] |
| 2.6 nM | CC(C)(F)CNc1ncc2c(-c3ccc4ncc(C(F)F)n4n3)c[nH]c2n1 [Compound 1081, 5-(3-(Difluoromethyl)imidazo[1,2-b]pyridazin-6-yl)-N-(2-fluoro-2-methylpropyl)-7H-pyrrolo[2,3-d]pyrimidin-2-amine] |
| 4.6 nM | CC(C)(F)CNc1ncc2c(-c3ccn4nccc4c3)c[nH]c2n1 [Compound 1125, N-(2-Fluoro-2-methylpropyl)-5-(pyrazolo[1,5-a]pyridin-5-yl)-7H-pyrrolo [2,3-d]pyrimidin-2-amine] |
| 2.4 nM | C[C@@H](Nc1ncc2c(-c3ccn4nccc4c3)c[nH]c2n1)C(F)(F)F [Compound 1128, (R)-5-(Pyrazolo[1,5-a]pyridin-5-yl)-N-(1,1,1-trifluoropropan-2-yl)-7H-pyrrolo[2,3-d]pyrimidin-2-amine] |
| 28.5 nM | CN1CCC(Nc2ncc3c(-c4ccn5nccc5c4)c[nH]c3n2)CC1 [Compound 1146, N-(1-Methylpiperidin-4-yl)-5-(pyrazolo[1,5-a]pyridin-5-yl)-7H-pyrrolo[2,3-d]pyrimidin-2-amine] |
| 68.9 nM | CC(C)(F)CNc1ncc2c(-c3ccn4ncc(F)c4c3)c[nH]c2n1 [Compound 1157, N-(2-Fluoro-2-methylpropyl)-5-(3-fluoropyrazolo[1,5-a]pyridin-5-yl)-7H-pyrrolo[2,3-d]pyrimidin-2-amine] |
| 3 nM | CN1CCC(Nc2ncc3c(-c4ccn5ncc(-c6cnn(C)c6)c5c4)c[nH]c3n2)CC1 [Compound 1190, 5-(3-(1-Methyl-1H-pyrazol-4-yl)pyrazolo[1,5-a]pyridin-5-yl)-N-(1-methylpiperidin-4-yl)-7H-pyrrolo[2,3-d]pyrimidin-2-amine] |
| 259 nM | O=C(c1cnn2ccc(-c3c[nH]c4nc(C5CCC5)ncc34)cc12)N1CCCCC1 [Compound 1205, (5-(2-Cyclobutyl-7H-pyrrolo[2,3-d]pyrimidin-5-yl)pyrazolo[1,5-a]pyridin-3-yl)(piperidin-1-yl)methanone] |
